Data reported in patent US9273017B2, “(Thio)morpholine derivatives as S1P modulators” (ABBVIE BAHAMAS LIMITED, priority 2009, dated 2016).
Counter-ions that a name gives are not always drawn.

Legend:
human S1P5 receptor = molecular target: T1, human S1P5 receptor (Homo sapiens, UniProt Q9H228); assay: In vitro functional activity (agonism), CHO-human-S1P5-Aequorin assay; type: cell-based; conditions: for EC50: read-out: S1P5 pEC50 (converted)
T1 construct: host or cells: CHO (AequoScreen recombinant cell line, co-expressing mitochondrially targeted apo-aequorin)
T1 sequence (Q9H228 whole entry): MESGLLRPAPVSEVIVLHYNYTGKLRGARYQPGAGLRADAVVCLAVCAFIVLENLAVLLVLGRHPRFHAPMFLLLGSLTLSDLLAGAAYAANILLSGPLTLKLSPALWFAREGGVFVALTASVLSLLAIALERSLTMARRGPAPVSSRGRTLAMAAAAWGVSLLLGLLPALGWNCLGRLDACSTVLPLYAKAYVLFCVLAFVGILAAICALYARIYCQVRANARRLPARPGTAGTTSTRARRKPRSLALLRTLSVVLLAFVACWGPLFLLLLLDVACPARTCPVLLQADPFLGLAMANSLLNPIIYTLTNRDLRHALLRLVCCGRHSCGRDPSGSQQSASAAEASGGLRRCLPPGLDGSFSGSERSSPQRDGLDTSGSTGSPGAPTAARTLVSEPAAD
Description: In Vitro Functional Activity (Agonism) on Human S1P5 Receptors
(§1) The CHO-human-S1P5-Aeqorin assay was bought from Euroscreen, Brussels (Euroscreen, Technical dossier, Human Lysophospholid S1P5 (Edg8) receptor, DNA clone and CHO AequoScreen™ recombinant cell-line, catalog no: ES-593-A, September 2006). Human-S1P5-Aequorin cells express mitochondrial targeted apo-Aequorin. Cells have to be loaded with coelanterazine, in order to reconstitute active Aequorin. After binding of agonists to the human S1P5 receptor the intracellular calcium concentration increases and binding of calcium to the apo-Aequorin/coelenterazine complex leads to an oxidation reaction of coelenterazine, which results in the production of apo-Aequorin, coelenteramide, CO2 and light (λmax 469 nm). This luminescent response is dependent on the agonist concentration. Luminescence is measured using the MicroBeta Jet (Perkin Elmer). Agonistic effects of compounds are expressed as pEC50. Compounds were tested at a 10 points half log concentration range, and 3 independent experiments were performed in single point's measurements.

human S1P3 receptor = molecular target: T2, human S1P3 receptor (Homo sapiens, UniProt Q99500); assay: In vitro functional activity (agonism), CHO-human-S1P3-Aequorin assay; type: cell-based; conditions: for EC50: read-out: S1P3 pEC50 (converted)
T2 construct: cell line established at Solvay Pharmaceuticals; host or cells: CHO K1 (CHO/Gα16/AEQ/h-S1P3)
T2 sequence (Q99500 whole entry): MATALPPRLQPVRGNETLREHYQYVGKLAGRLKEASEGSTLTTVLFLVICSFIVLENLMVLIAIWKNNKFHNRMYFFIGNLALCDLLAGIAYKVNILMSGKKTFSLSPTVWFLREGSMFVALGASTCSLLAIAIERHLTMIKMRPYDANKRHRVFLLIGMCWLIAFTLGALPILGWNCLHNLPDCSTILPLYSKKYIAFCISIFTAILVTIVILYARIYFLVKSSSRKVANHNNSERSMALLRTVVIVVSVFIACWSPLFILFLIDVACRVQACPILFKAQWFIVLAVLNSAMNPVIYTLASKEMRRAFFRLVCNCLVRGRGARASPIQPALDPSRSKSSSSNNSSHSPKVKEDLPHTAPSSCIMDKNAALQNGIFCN
Description: In Vitro Functional Activity (Agonism) on Human S1P3 Receptors
The CHO-human-S1P3-Aeqorin assay (CHO/Gα16/AEQ/h-S1P3) was established at Solvay Pharmaceuticals. The plasmid DNA coding for the S1P3 receptor (accession number in GenBank NM_005226 was purchased from UMR cDNA resource Centre (Rolla, Mo.). The pcDNA3.1/hS1P3 construct carrying the mitochondrially targeted apo-Aeqorin and Gα16 protein was transfected in CHO K1 cell-line.
as §1, with “Human-S1P3-Aequorin” for “The CHO-human-S1P5-Aeqorin assay was bought from Euroscreen, Brussels (Euroscreen, Technical dossier, Human Lysophospholid S1P5 (Edg8) receptor, DNA clone and CHO AequoScreen™ recombinant cell-line, catalog no: ES-593-A, September 2006). Human-S1P5-Aequorin”, “S1P3” for “S1P5”

Molecule | melting point [°C] | EC50 (human S1P5 receptor) [nM] | EC50 (human S1P3 receptor) [nM] | further results
CC#Cc1cc(Cl)c(COc2ccc(C3CN(CCC(=O)O)CCO3)cc2)c(Cl)c1.Cl (stereo not drawn) | 220 to 224 |  |  | 
CCCCCCCCOc1ccc(C2CN(CCP(=O)(O)O)CCO2)cc1 (stereo not drawn) [Compound 137, {2-[2-(4-Octyloxy-phenyl)-morpholin-4-yl]-ethyl}-phosphonic acid] |  | 100 | 501 | 
Cc1cc(OCc2ccc(C(C)(C)C)cc2)ccc1C1CN(CCC(=O)O)CCO1 (stereo not drawn) [Compound 127, 3-{2-[4-(4-tert-Butyl-benzyloxy)-2-methyl-phenyl]-morpholin-4-yl}-propionic acid] |  | 631 | > 10000 | 
O=C(O)CCN1CCOC(c2ccc(OCc3c(Cl)cccc3Cl)c(C(F)(F)F)c2)C1 (stereo not drawn) [Compound 131, 3-{2-[4-(2,6-Dichloro-benzyloxy)-3-trifluoromethyl-phenyl]-morpholin-4-yl}-propionic acid trifluoroacetic acid salt] |  | 1000 | > 10000 | 
O=C(O)CCN1CCOC(c2ccc(OCCCc3cccc(F)c3F)cc2)C1 (stereo not drawn) [Compound 174, 3-(2-{4-[3-(2,3-Difluoro-phenyl)-propoxy]-phenyl}-morpholin-4-yl)-propionic acid hydrochloride] |  | 1580 | 5010 | 
CCCc1cc(Cl)c(COc2ccc(C3CN(CCC(=O)O)CCO3)cc2)c(Cl)c1.Cl (stereo not drawn) | 101 to 103 |  |  | 
Cl.O=C(O)CCN1CCOC(c2ccc(OCc3ccccc3C(F)(F)F)c(Cl)c2)C1 (stereo not drawn) | 199 to 201 |  |  | 
Cl.O=C(O)CCN1CCOC(c2cccc(OCc3c(Cl)cccc3Cl)c2)C1 (stereo not drawn) | 229 to 230 |  |  | 
CCCCc1ccc(COc2ccc(C3CN(CCC(=O)O)CCO3)c(C)c2)cc1 (stereo not drawn) [Compound 117, 3-{2-[4-(4-Butyl-benzyloxy)-2-methyl-phenyl]-morpholin-4-yl}-propionic acid] |  | 3980 | > 10000 | 
COc1cc(C2CN(CCC(=O)O)CCO2)ccc1OCc1c(Cl)cccc1Cl.Cl (stereo not drawn) | 214 to 216 |  |  | 
CC(C)c1cc(Cl)c(COc2ccc(C3CN(CCC(=O)O)CCO3)cc2)c(Cl)c1.Cl (stereo not drawn) | 108 to 110 |  |  | 
Cl.O=C(O)CCN1CCOC(c2ccc(OCc3c(F)cccc3Cl)cc2F)C1 (stereo not drawn) | 189 to 190 |  |  | 
O=C(O)CCN1CCOC(c2ccc(OC3COc4ccccc43)cc2)C1 (stereo not drawn) [Compound 221, 3-{2-[4-(2,3-Dihydro-benzofuran-3-yloxy)-phenyl]-morpholin-4-yl}-propionic acid] | 141.5 to 144.5 |  |  | 
Cl.O=C(O)CCN1CCOC(c2cccc(OCc3ccccc3Cl)c2)C1 (stereo not drawn) | 233 to 234 |  |  | 
O=C(O)CCN1CCOC(c2ccc(C(=O)Nc3c(Cl)cccc3Cl)cc2)C1 (stereo not drawn) [Compound 53, 3-{2-[4-(2,6-Dichloro-phenylcarbamoyl)-phenyl]-morpholin-4-yl}-propionic acid hydrochloride] |  | 2000 | > 10000 | 
Cc1cc(OCc2cccc(Oc3ccccc3)c2)ccc1C1CN(CCC(=O)O)CCO1 (stereo not drawn) [Compound 92, 3-{2-[2-Methyl-4-(3-phenoxy-benzyloxy)-phenyl]-morpholin-4-yl}-propionic acid] |  | 5010 | > 10000 | 
Cc1cc(OCc2ccc3ccccc3c2)ccc1C1CN(CCC(=O)O)CCO1 (stereo not drawn) [Compound 76, 3-{2-[2-Methyl-4-(naphthalen-2-ylmethoxy)-phenyl]-morpholin-4-yl}-propionic acid] |  | 2510 | > 10000 | 
Cl.O=C(O)CCN1CCOC(c2ccc(OCc3ccccc3C(F)(F)F)cc2F)C1 (stereo not drawn) | 201 to 201.5 |  |  | 
Cl.O=C(O)CCN1CCSC(c2ccc(OCc3ccccc3Cl)cc2)C1 (stereo not drawn) | 178 to 182 |  |  | 
Cc1ccc(COc2ccc(C3CN(CCC(=O)O)CCO3)cc2)c(Cl)c1 (stereo not drawn) [Compound 196, 3-{2-[4-(2-Chloro-4-methyl-benzyloxy)-phenyl]-morpholin-4-yl}-propionic acid hydrochloride] |  | 1000 |  | 
Cc1cc(OCC2CCC3CC2C3(C)C)ccc1C1CN(CCC(=O)O)CCO1 (stereo not drawn) [Compound 84, 3-{2-[4-(6,6-Dimethyl-bicyclo[3.1.1]hept-2-ylmethoxy)-2-methyl-phenyl]-morpholin-4-yl}-propionic acid] |  | 3980 | > 10000 | 

Molecule | melting point [°C] | EC50 (human S1P5 receptor) [nM] | EC50 (human S1P3 receptor) [nM] | further results
O=C(O)CCN1CCOC(c2ccc(OC3CCc4ccccc43)cc2)C1 (stereo not drawn) [Compound 219, 3-{2-[4-(Indan-1-yloxy)-phenyl]-morpholin-4-yl}propionic acid] | 124 to 129.5 |  |  | 
Cl.O=C(O)CCN1CCOC(c2ccc(OCc3cccc(C(F)(F)F)c3)cc2C(F)(F)F)C1 (stereo not drawn) | 209 to 211 |  |  | 
CCCc1ncc(OCCCOc2ccc(C3CN(CCC(=O)O)CCO3)cc2)s1 (stereo not drawn) [Compound 3, 3-(2-{4-[3-(2-Propyl-thiazol-5-yloxy)-propoxy]-phenyl}-morpholin-4-yl)-propionic acid trifluoroacetic acid salt] |  | 10000 | 15800 | 
O=C(O)CCN1CCOC(c2ccc(OCC3CCCCC3)cc2)C1 (stereo not drawn) [Compound 24, 3-[2-(4-Cyclohexylmethoxy-phenyl)-morpholin-4-yl]-propionic acid trifluoroacetic acid salt] |  | 631 | > 31600 | 
Cl.O=C(O)CCN1CCOC(c2ccc(OCc3c(F)cccc3Cl)cc2C(F)(F)F)C1 (stereo not drawn) | 171.5 to 172.5 |  |  | 
Cl.O=C(O)CCN1CCOC(c2cccc(OCc3ccccc3)c2)C1 (stereo not drawn) | 222 to 225 |  |  | 
Cc1cc(C2CN(CCC(=O)O)CCO2)ccc1OCc1c(F)cccc1Cl (stereo not drawn) [Compound 144, 3-{2-[4-(2-Chloro-6-fluoro-benzyloxy)-3-methyl-phenyl]-morpholin-4-yl}-propionic acid hydrochloride] |  | 631 | > 10000 | 
CCc1cccc(Cl)c1COc1ccc(C2CN(CCC(=O)O)CCO2)c(C(F)(F)F)c1.Cl (stereo not drawn) | 214 to 215 |  |  | 
Cc1cc(OCc2cccc(OCc3ccccc3)c2)ccc1C1CN(CCC(=O)O)CCO1 (stereo not drawn) [Compound 100, 3-{2-[4-(3-Benzyloxy-benzyloxy)-2-methyl-phenyl]-morpholin-4-yl}-propionic acid] |  | 3980 | > 10000 | 
CC(C)c1cccc(Cl)c1COc1ccc(C2CN(CCC(=O)O)CCO2)c(C(F)(F)F)c1.Cl (stereo not drawn) | 206 to 210 |  |  | 
CCc1cc(Cl)c(COc2ccc(C3CN(CCC(=O)O)CCO3)cc2)c(Cl)c1 (stereo not drawn) [Compound 164, 3-{2-[4-(2,6-Dichloro-4-ethyl-benzyloxy)-phenyl]-morpholin-4-yl}-propionic acid hydrochloride] |  | 316 | 2000 | 
Cl.O=C(O)CCN1CCOC(c2ccc(OCc3c(Cl)cccc3Cl)cc2C(F)(F)F)C1 (stereo not drawn) | 195 to 197 |  |  | 
Cl.O=C(O)CCN1CCOC(c2ccc(OCc3c(Cl)cccc3OC(F)(F)F)cc2C(F)(F)F)C1 (stereo not drawn) | 179 to 182 |  |  | 
Cl.O=C(O)CCN1CCOC(c2ccc(OCc3c(Cl)cccc3C3CC3)cc2C(F)(F)F)C1 (stereo not drawn) | 203 to 204 |  |  | 
Cl.O=C(O)CCN1CCOC(c2ccc(OCc3c(Cl)cccc3C(F)(F)F)cc2C(F)(F)F)C1 (stereo not drawn) | 200 to 201 |  |  | 
O=C(O)CCN1CCOC(c2ccc(OCCCc3ccccc3)cc2)C1 (stereo not drawn) [Compound 16, 3-{2-[4-(3-Phenyl-propoxy)-phenyl]-morpholin-4-yl}-propionic acid trifluoroacetic acid salt] |  | 1000 | 3980 | 
CCCCCCCCSc1ccc(C2CN(CCC(=O)O)CCO2)cc1 (stereo not drawn) [Compound 204, 3-[2-(4-Octylsulfanyl-phenyl)-morpholin-4-yl]-propionic acid Hydrochloride] |  | 398 |  | 
COc1cc(C2CN(CCC(=O)O)CCO2)ccc1OCc1c(F)cccc1Cl.Cl (stereo not drawn) | 169 to 171 |  |  | 
CCCCCCCCOc1ccc(C2CN(CCC(=O)O)C(C)(C)CO2)cc1 (stereo not drawn) [Compound 187, 3-[5,5-Dimethyl-2-(4-octyloxy-phenyl)-morpholin-4-yl]-propionic acid hydrochloride] |  | 794 | 3160 | 
O=C(O)CCN1CCOC(c2ccc(OCc3c(Cl)cccc3Cl)cc2)C1 (single isomer, unassigned; (+)) [Compound 34a, (+)-3-{2-[4-(2,6-Dichloro-benzyloxy)-phenyl]-morpholin-4-yl}-propionic acid hydrochloride] |  | 631 | > 31600 | 
3-{2-[4-(2,6-Dichloro-benzyloxy)-phenyl]-morpholin-4-yl}-2,2-di-fluoro-propionic acid triethylammonium salt [Compound 150] |  |  |  | S1P5 pEC50 (human S1P5 receptor): 6.2; S1P3 pEC50 (human S1P3 receptor): <5.0
